Laboratory results reported in ChEMBL document CHEMBL5113524, “Substrates and Inhibitors of the Organic Cation Transporter 3 and Comparison with OCT1 and OCT2” (J Med Chem, 2022).

What was measured:
[1] = molecular target: T1, OCT3 (SLC22A3) (Homo sapiens, UniProt O75751); experiment: Substrate activity at human OCT3 overexpressed in HEK293 cells assessed as uptake ratio incubated for 2 mins by LC-MS/MS analysis; format: ADME, cell-based; conditions: HEK293 cells overexpressing OCT3
T1 sequence (O75751 whole entry): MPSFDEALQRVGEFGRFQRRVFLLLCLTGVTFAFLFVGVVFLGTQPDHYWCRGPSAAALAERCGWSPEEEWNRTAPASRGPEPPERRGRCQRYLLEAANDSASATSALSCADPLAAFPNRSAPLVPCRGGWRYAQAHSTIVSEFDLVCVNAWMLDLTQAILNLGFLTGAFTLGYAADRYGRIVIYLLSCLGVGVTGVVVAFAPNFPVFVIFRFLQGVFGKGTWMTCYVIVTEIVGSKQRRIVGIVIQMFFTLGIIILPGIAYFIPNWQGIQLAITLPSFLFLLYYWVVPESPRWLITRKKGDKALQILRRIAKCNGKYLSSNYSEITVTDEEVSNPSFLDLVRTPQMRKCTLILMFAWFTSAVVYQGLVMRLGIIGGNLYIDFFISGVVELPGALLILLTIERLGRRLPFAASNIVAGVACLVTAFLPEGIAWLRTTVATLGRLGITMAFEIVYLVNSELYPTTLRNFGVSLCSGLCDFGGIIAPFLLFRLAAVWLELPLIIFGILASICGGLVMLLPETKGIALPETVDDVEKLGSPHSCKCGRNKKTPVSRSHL

[2] = molecular target: T1, OCT3 (SLC22A3); experiment: Inhibition of human OCT3 mediated ASP+ uptake overexpressed in HEK293 cells at 20 uM incubated for 5 mins by HPLC-MS/MS analysis relative to control; format: cell-based; conditions: HEK293 cells overexpressing OCT3, probe ASP+
[3] = molecular target: T1, OCT3 (SLC22A3); experiment: Inhibition of human OCT3 mediated (S,S)-Ethambutol uptake overexpressed in HEK293 cells at 20 uM incubated for 5 mins by HPLC-MS/MS analysis relative to control; format: cell-based; conditions: HEK293 cells overexpressing OCT3, probe (S,S)-Ethambutol
[4] = molecular target: T1, OCT3 (SLC22A3); experiment: Inhibition of human OCT3 mediated Famotidine uptake overexpressed in HEK293 cells at 20 uM incubated for 5 mins by HPLC-MS/MS analysis relative to control; format: cell-based; conditions: HEK293 cells overexpressing OCT3, probe Famotidine
[5] = molecular target: T1, OCT3 (SLC22A3); experiment: Inhibition of human OCT3 mediated methylscopolamine uptake overexpressed in HEK293 cells at 20 uM incubated for 5 mins by HPLC-MS/MS analysis relative to control; format: cell-based; conditions: HEK293 cells overexpressing OCT3, probe methylscopolamine
[6] = molecular target: T1, OCT3 (SLC22A3); experiment: Inhibition of human OCT3 mediated N-Ethyllidocaine uptake overexpressed in HEK293 cells at 20 uM incubated for 5 mins by HPLC-MS/MS analysis relative to control; format: cell-based; conditions: HEK293 cells overexpressing OCT3, probe N-Ethyllidocaine
[7] = molecular target: T2, Solute carrier family 22 member 3 (Homo sapiens, UniProt O75751); experiment: (§1) Inhibition of human OCT3 overexpressed in HEK293 cells assessed as intracellularly accumulation of ASP+ at 20 uM incubated for 5 mins by HPLC-MS/MS analysis relative to control; format: cell-based; conditions: hek293, 5 min, 20 µM
T2 sequence (O75751 whole entry): T1 sequence (O75751 whole entry)

[8] = molecular target: T1, OCT3 (SLC22A3); experiment: Inhibition of OCT3 (unknown origin) overexpressed in HEK293 cells assessed as intracellular accumulation of ASP+ incubated for 2 mins by Analyst AD plate reader method relative to control; format: cell-based; design: concentration or dose not given beside the values; conditions: HEK293 cells overexpressing OCT3, probe ASP+
[9] = molecular target: T1, OCT3 (SLC22A3); experiment: as §1; format: cell-based; conditions: HEK293 cells overexpressing OCT3, probe ASP+
[10] = molecular target: Solute carrier family 22 member 2 (Homo sapiens) (UniProt O15244); experiment: Inhibition of OCT2 mediated (unknown origin) assessed as intracellular accumulation of ASP+ relative to control
[11] = molecular target: OCT2 (Homo sapiens, UniProt O15244); experiment: Substrate activity at human OCT2 overexpressed in HEK293 cells assessed as uptake ratio incubated for 2 mins by LC-MS/MS analysis; format: ADME, cell-based; conditions: HEK293 cells overexpressing OCT2
[12] = molecular target: OCT1 (Homo sapiens, UniProt O15245); experiment: Substrate activity at OCT1 (unknown origin) assessed as uptake ratio; format: ADME, cell-based; conditions: HEK293 cells
OCT1, sequence (O15245 whole entry, looked up): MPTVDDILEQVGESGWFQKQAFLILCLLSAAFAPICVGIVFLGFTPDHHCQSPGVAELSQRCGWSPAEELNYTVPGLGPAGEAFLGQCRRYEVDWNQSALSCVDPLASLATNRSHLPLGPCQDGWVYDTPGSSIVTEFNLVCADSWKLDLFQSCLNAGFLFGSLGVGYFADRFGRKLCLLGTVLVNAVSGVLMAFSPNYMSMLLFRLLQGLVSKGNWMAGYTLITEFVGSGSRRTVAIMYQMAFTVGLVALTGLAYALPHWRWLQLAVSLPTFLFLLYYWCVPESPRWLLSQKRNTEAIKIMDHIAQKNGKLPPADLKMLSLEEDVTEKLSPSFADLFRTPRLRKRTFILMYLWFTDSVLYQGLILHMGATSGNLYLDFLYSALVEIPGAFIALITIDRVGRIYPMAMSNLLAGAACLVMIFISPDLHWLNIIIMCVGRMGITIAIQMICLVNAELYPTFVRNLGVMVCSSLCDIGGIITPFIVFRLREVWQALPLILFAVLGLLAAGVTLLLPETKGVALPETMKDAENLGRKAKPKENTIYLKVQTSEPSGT

OCT2, sequence (O15244 whole entry, looked up): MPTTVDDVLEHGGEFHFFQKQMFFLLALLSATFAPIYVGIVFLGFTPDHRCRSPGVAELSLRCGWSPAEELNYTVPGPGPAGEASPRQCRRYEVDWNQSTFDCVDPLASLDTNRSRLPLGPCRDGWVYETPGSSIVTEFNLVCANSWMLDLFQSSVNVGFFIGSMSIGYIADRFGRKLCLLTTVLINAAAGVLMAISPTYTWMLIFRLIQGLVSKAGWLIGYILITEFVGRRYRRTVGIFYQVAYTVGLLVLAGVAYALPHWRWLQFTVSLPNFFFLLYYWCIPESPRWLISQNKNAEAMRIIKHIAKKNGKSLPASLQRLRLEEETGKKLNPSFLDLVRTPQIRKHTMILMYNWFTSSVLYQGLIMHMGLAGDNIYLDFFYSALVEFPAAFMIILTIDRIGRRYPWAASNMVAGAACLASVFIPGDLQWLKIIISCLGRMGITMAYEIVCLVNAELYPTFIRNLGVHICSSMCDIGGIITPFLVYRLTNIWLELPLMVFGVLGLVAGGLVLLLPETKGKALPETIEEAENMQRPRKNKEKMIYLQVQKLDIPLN
Solute carrier family 22 member 2 (Homo sapiens), sequence (O15244 whole entry, looked up): as above

SMILES: CC[N+](CC)(CC)CC(=O)Nc1c(C)cccc1C
- uptake ratio at 2 min [1]: 50
- inhibition at 5 min, 20 µM [2]: 16%
- inhibition at 5 min, 20 µM [3]: 44%
- inhibition at 5 min, 20 µM [4]: 52%
- inhibition at 5 min, 20 µM [5]: 15%

SMILES: CC[N+](CC)(CC)Cc1ccccc1
- uptake ratio at 2 min [1]: 62.5
- inhibition at 5 min, 20 µM [2]: 5%
- inhibition at 5 min, 20 µM [5]: 49%

SMILES: CN(C)c1ccc(/C=C/c2cc[n+](C)cc2)cc1
- inhibition at 5 min, 20 µM [3]: 51%
- inhibition at 5 min, 20 µM [4]: 63%
- inhibition at 5 min, 20 µM [6]: 70%
- inhibition at 5 min, 20 µM [5]: 58%

SMILES: N=C(N)N1Cc2ccccc2C(O)C1 (stereo unspecified)
- uptake ratio at 2 min [1]: 38

SMILES: C[N+]1(CCC(C(N)=O)(c2ccccc2)c2ccccc2)CCCCC1
- inhibition (INH) [7]: Active

SMILES: C[N+]1(C)[C@@H]2C[C@H](OC(=O)[C@H](CO)c3ccccc3)C[C@H]1[C@@H]1O[C@@H]12
- inhibition at 5 min, 20 µM [2]: 0%
- inhibition at 5 min, 20 µM [3]: 27%
- inhibition at 5 min, 20 µM [4]: 40%
- inhibition at 5 min, 20 µM [6]: 21%

SMILES: Cc1cc(N)c2ccccc2[n+]1CCCCCCCCCC[n+]1c(C)cc(N)c2ccccc21
- inhibition at 2 min [8]: 66.6%

SMILES: C[N+]1(C)[C@@H]2C[C@H](OC(=O)C(O)(c3cccs3)c3cccs3)C[C@H]1[C@@H]1O[C@@H]12
- uptake ratio at 2 min [1]: 50

SMILES: CNCC/C=C1\c2ccccc2CC(O)c2ccccc21 (stereo unspecified)
- inhibition at 5 min, 20 µM [9]: 86.7%

SMILES: CN(C)CCC=C1c2ccccc2CC(O)c2ccccc21 (stereo unspecified)
- inhibition at 5 min, 20 µM [9]: 79.3%

SMILES: N=C(NCCCCCCNC(=N)NC(=N)Nc1ccc(Cl)cc1)NC(=N)Nc1ccc(Cl)cc1
- inhibition [10]: 105%

SMILES: COc1ccc2[nH]cc(CCN)c2c1 [5-METHOXYTRYPTAMINE]
- uptake ratio at 2 min [1]: 2.2
- uptake ratio at 2 min [11]: 7.1
- uptake ratio [12]: 3.8

SMILES: CCCCC(CC)CNC(=N)NC(=N)NCCCCCCNC(=N)NC(=N)NCC(CC)CCCC (stereo unspecified) [ALEXIDINE]
- inhibition at 5 min, 20 µM [9]: 103%
- inhibition at 2 min [8]: 98.1%

SMILES: CN(C)CCC=C1c2ccccc2CCc2ccccc21 [AMITRIPTYLINE]
- inhibition at 5 min, 20 µM [9]: 80%

SMILES: [H]/N=C(\N/C(=N/[H])NCCCCCCNC(=N)NC(=N)Nc1ccc(Cl)cc1)Nc1ccc(Cl)cc1 [CHLORHEXIDINE]
- inhibition at 5 min, 20 µM [9]: 98.4%
- inhibition at 2 min [8]: 98.4%

SMILES: CC(C)(C)NCC(O)c1ccc(O)c(O)c1 (stereo unspecified) [COLTEROL]
- uptake ratio at 2 min [1]: 53

SMILES: C[C@@H](Oc1cc(-c2cnn(C3CCNCC3)c2)cnc1N)c1c(Cl)ccc(F)c1Cl [CRIZOTINIB]
- inhibition at 5 min, 20 µM [9]: 90.4%

SMILES: C[N+]1(C)CCN(c2ccccc2)CC1 [DIMETHYLPHENYLPIPERAZINIUM]
- uptake ratio at 2 min [1]: 46

SMILES: CC[C@@H](CO)NCCN[C@@H](CC)CO [ETHAMBUTOL]
- inhibition at 5 min, 20 µM [2]: 7%
- inhibition at 5 min, 20 µM [4]: -1%
- inhibition at 5 min, 20 µM [6]: -7%
- inhibition at 5 min, 20 µM [5]: -13%

SMILES: CN[C@@H]1CCc2[nH]c3ccc(C(N)=O)cc3c2C1 [FROVATRIPTAN]
- uptake ratio at 2 min [1]: 7.7
- uptake ratio at 2 min [11]: 10.8
- uptake ratio [12]: 30.3

SMILES: CN(C)c1ccc(C(=C2C=CC(=[N+](C)C)C=C2)c2ccc(N(C)C)cc2)cc1 [GENTIAN VIOLET]
- inhibition at 5 min, 20 µM [9]: 81.4%
- inhibition at 2 min [8]: 107%
- inhibition [10]: 116%

SMILES: CC(C)[N+]1(C)[C@@H]2CC[C@H]1C[C@@H](OC(=O)C(CO)c1ccccc1)C2 (stereo partly specified) [IPRATROPIUM]
- inhibition at 5 min, 20 µM [9]: 79.1%
- inhibition at 2 min [8]: 47.8%

SMILES: CCC(NC(C)C)C(O)c1ccc(O)c(O)c1 (stereo unspecified) [ISOETHARINE]
- uptake ratio at 2 min [1]: 23.3

SMILES: C[N+]1(CC2CC2)CC[C@]23c4c5ccc(O)c4O[C@H]2C(=O)CC[C@@]3(O)[C@H]1C5 (stereo partly specified) [METHYLNALTREXONE]
- uptake ratio at 2 min [1]: 102

SMILES: CNCCC=C1c2ccccc2CCc2ccccc21 [NORTRIPTYLINE]
- inhibition at 5 min, 20 µM [9]: 80%

SMILES: Cc1nc2n(c(=O)c1CCN1CCC(c3noc4cc(F)ccc34)CC1)CCCC2O (stereo unspecified) [PALIPERIDONE]
- inhibition at 5 min, 20 µM [9]: 87.7%

SMILES: [H]/N=C(/N)N/C(=N/[H])NCCc1ccccc1 [PHENFORMIN]
- uptake ratio at 2 min [1]: 32.2

SMILES: CN(C)CCc1c[nH]c2ccc(Cn3cncn3)cc12 [RIZATRIPTAN]
- uptake ratio at 2 min [1]: 2.4
- uptake ratio at 2 min [11]: 4.1
- uptake ratio [12]: 4.3

SMILES: CC(=O)S[C@@H]1CC2=CC(=O)CC[C@]2(C)[C@H]2CC[C@@]3(C)[C@@H](CC[C@@]34CCC(=O)O4)[C@H]12 [SPIRONOLACTONE]
- inhibition at 5 min, 20 µM [9]: 93.9%
- inhibition [10]: 84.2%

SMILES: Cc1ccc(O)c([C@H](CCN(C(C)C)C(C)C)c2ccccc2)c1 [TOLTERODINE]
- inhibition at 5 min, 20 µM [9]: 96.1%

SMILES: O=C(O[C@H]1C[C@H]2CC[C@@H](C1)[N+]21CCCC1)C(O)(c1ccccc1)c1ccccc1 [TROSPIUM]
- inhibition (INH) [7]: Active

SMILES: CN(C)CCc1c[nH]c2ccc(C[C@H]3COC(=O)N3)cc12 [ZOLMITRIPTAN]
- uptake ratio at 2 min [1]: 22
- uptake ratio at 2 min [11]: 1.2
- uptake ratio [12]: 9.3
